pIC50: −log10 of the molar value.
Test: In vitro cytotoxicity in different cell lines using the CellTiter-Blue Cell Viability Assay
Assay type: cell-based, human
Details: Homo sapiens, 96 h, read-out: Geomean IC50

`COc1cc2cc(c1Cl)N(C)C(=O)C[C@H](OC(=O)Cc1ccc(C(C)=O)c(F)c1)[C@]1(C)O[C@H]1[C@H](C)[C@@H]1C[C@@](O)(NC(=O)O1)[C@H](OC)/C=C/C=C(\C)C2` [Compound 5] and `COc1cc2cc(c1Cl)N(C)C(=O)C[C@H](OC(=O)Cc1ccc(C(C)=O)c([N+](=O)[O-])c1)[C@]1(C)O[C@H]1[C@H](C)[C@@H]1C[C@@](O)(NC(=O)O1)[C@H](OC)/C=C/C=C(\C)C2` [Compound 7] are the same in pIC50: 9.05 for the first, 9.05 for the second.

`COc1cc2cc(c1Cl)N(C)C(=O)C[C@H](OC(=O)Cc1ccc(C(C)=O)cc1[N+](=O)[O-])[C@]1(C)O[C@H]1[C@H](C)[C@@H]1C[C@@](O)(NC(=O)O1)[C@H](OC)/C=C/C=C(\C)C2` [Compound 6] and `COc1cc2cc(c1Cl)N(C)C(=O)C[C@H](OC(=O)CSc1ccc(C(C)=O)cc1[N+](=O)[O-])[C@]1(C)O[C@H]1[C@H](C)[C@@H]1C[C@@](O)(NC(=O)O1)[C@H](OC)/C=C/C=C(\C)C2` [Compound 14] are within 0.2 log units of each other in pIC50: 8.67 for the first, 8.81 for the second.

Going from `COc1cc2cc(c1Cl)N(C)C(=O)C[C@H](OC(=O)CCCc1ccc(C(C)=O)cc1)[C@]1(C)O[C@H]1[C@H](C)[C@@H]1C[C@@](O)(NC(=O)O1)[C@H](OC)/C=C/C=C(\C)C2` [Compound 8] to `COc1cc2cc(c1Cl)N(C)C(=O)C[C@H](OC(=O)CCc1ccc(C(C)=O)cc1)[C@]1(C)O[C@H]1[C@H](C)[C@@H]1C[C@@](O)(NC(=O)O1)[C@H](OC)/C=C/C=C(\C)C2` [Compound 9], the pIC50 falls from 10.00 to 9.72 (0.28 log units). The first is the more potent here.

`COc1cc2cc(c1Cl)N(C)C(=O)C[C@H](OC(=O)CN(C)c1ccc(C(C)=O)cc1)[C@]1(C)O[C@H]1[C@H](C)[C@@H]1C[C@@](O)(NC(=O)O1)[C@H](OC)/C=C/C=C(\C)C2` [Compound 10] and `COc1cc2cc(c1Cl)N(C)C(=O)C[C@H](OC(=O)CSc1ccc(C(C)=O)cc1)[C@]1(C)O[C@H]1[C@H](C)[C@@H]1C[C@@](O)(NC(=O)O1)[C@H](OC)/C=C/C=C(\C)C2` [Compound 11] are within 0.2 log units of each other in pIC50: 9.52 for the first, 9.68 for the second.

First: COc1cc2cc(c1Cl)N(C)C(=O)C[C@H](OC(=O)CSc1ccc(C(C)=O)cc1C)[C@]1(C)O[C@H]1[C@H](C)[C@@H]1C[C@@](O)(NC(=O)O1)[C@H](OC)/C=C/C=C(\C)C2 [Compound 12]
Second: COc1cc2cc(c1Cl)N(C)C(=O)C[C@H](OC(=O)CSc1ccc(C(C)=O)cc1Cl)[C@]1(C)O[C@H]1[C@H](C)[C@@H]1C[C@@](O)(NC(=O)O1)[C@H](OC)/C=C/C=C(\C)C2 [Compound 15]
The pIC50 of the first is 0.62 log units lower: 9.12 for the first, 9.74 for the second.

Compared with `COc1cc2cc(c1Cl)N(C)C(=O)C[C@H](OC(=O)CSc1ccc(C(C)=O)cc1C(F)(F)F)[C@]1(C)O[C@H]1[C@H](C)[C@@H]1C[C@@](O)(NC(=O)O1)[C@H](OC)/C=C/C=C(\C)C2` [Compound 13], `COc1cc2cc(c1Cl)N(C)C(=O)C[C@H](OC(=O)CSc1ccc(C(C)=O)cc1Br)[C@]1(C)O[C@H]1[C@H](C)[C@@H]1C[C@@](O)(NC(=O)O1)[C@H](OC)/C=C/C=C(\C)C2` [Compound 16] is 0.43 log units higher in pIC50: 9.06 for the first, 9.49 for the second.

Compared with `COc1cc(C(C)=O)ccc1SCC(=O)O[C@H]1CC(=O)N(C)c2cc(cc(OC)c2Cl)C/C(C)=C/C=C/[C@@H](OC)[C@@]2(O)C[C@H](OC(=O)N2)[C@@H](C)[C@@H]2O[C@@]12C` [Compound 17], `COc1cc2cc(c1Cl)N(C)C(=O)C[C@H](OC(=O)COc1ccc(C(C)=O)cc1)[C@]1(C)O[C@H]1[C@H](C)[C@@H]1C[C@@](O)(NC(=O)O1)[C@H](OC)/C=C/C=C(\C)C2` [Compound 18] is 0.54 log units higher in pIC50: 9.35 for the first, 9.89 for the second.

`COc1cc2cc(c1Cl)N(C)C(=O)C[C@H](OC(=O)C(C)(C)Oc1ccc(C(C)=O)cc1)[C@]1(C)O[C@H]1[C@H](C)[C@@H]1C[C@@](O)(NC(=O)O1)[C@H](OC)/C=C/C=C(\C)C2` [Compound 19] and `COc1cc2cc(c1Cl)N(C)C(=O)C[C@H](OC(=O)C1CCCN1C(=O)c1ccc(C(C)=O)cc1)[C@]1(C)O[C@H]1[C@H](C)[C@@H]1C[C@@](O)(NC(=O)O1)[C@H](OC)/C=C/C=C(\C)C2` (stereo partly shown) [Compound 20] are within 0.2 log units of each other in pIC50: 8.95 for the first, 9.03 for the second.
